Measured values from patent US12077503B2, “Substituted cyclic amides and their use as herbicides” (FMC CORPORATION, priority 2015, dated 2024).

Columns and labels:
Assay type in all cases: in vivo
Kochia (Kochia scoparia) [1] = assay: Test A preemergence
Summary of the method: (§1)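 Visual injury, scored on a 0–100 scale relative to untreated controls, was recorded about 10 d after application. Treatments were a preemergence soil spray over planted seeds or a postemergence spray on plants at the one- to two-leaf stage, 2 to 10 cm tall, all in loam soil–sand blend in the greenhouse.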

[2] = test system: ryegrass, Italian (Italian ryegrass, Lolium multiflorum); assay: Test A preemergence
Summary of the method: as §1

[3] = test system: pigweed (Amaranthus retroflexus); assay: Test A preemergence
[4] = test system: giant foxtail (Setaria faberii); assay: Test A preemergence
Summary of the method: as §1

[5] = test system: ragweed (common ragweed, Ambrosia elatior); assay: Test A preemergence
Summary of the method: as §1

[6] = test system: barnyardgrass (Echinochloa crus-galli); assay: Test A preemergence
Summary of the method: as §1

Kochia (Kochia scoparia) [7] = assay: Test A postemergence; settings: postemergence, 0 to 100 scale (0 no effect, 100 complete control)
Summary of the method: as §1

[8] = test system: ryegrass, Italian (Italian ryegrass, Lolium multiflorum); assay: Test A postemergence; settings: postemergence, 0 to 100 scale (0 no effect, 100 complete control)
Summary of the method: as §1

[9] = test system: pigweed (Amaranthus retroflexus); assay: Test A postemergence; settings: postemergence, 0 to 100 scale (0 no effect, 100 complete control)
Summary of the method: as §1

[10] = test system: giant foxtail (Setaria faberii); assay: Test A postemergence; settings: postemergence, 0 to 100 scale (0 no effect, 100 complete control)
Summary of the method: as §1

[11] = test system: blackgrass (Alopecurus myosuroides); assay: Test A postemergence; settings: postemergence, 0 to 100 scale (0 no effect, 100 complete control)
Summary of the method: as §1

[12] = test system: ragweed (common ragweed, Ambrosia elatior); assay: Test A postemergence; settings: postemergence, 0 to 100 scale (0 no effect, 100 complete control)
Summary of the method: as §1

corn (Zea mays) = assay: Test A postemergence; settings: postemergence, 0 to 100 scale (0 no effect, 100 complete control)
Summary of the method: as §1

[13] = test system: barnyardgrass (Echinochloa crus-galli); assay: Test A postemergence; settings: postemergence, 0 to 100 scale (0 no effect, 100 complete control)
Summary of the method: as §1

[14] = test system: Galium (catchweed bedstraw, Galium aparine); assay: Test A postemergence; settings: postemergence, 0 to 100 scale (0 no effect, 100 complete control)
Summary of the method: as §1

[15] = test system: wheat (Triticum aestivum); assay: Test A postemergence; settings: postemergence, 0 to 100 scale (0 no effect, 100 complete control)
Summary of the method: as §1

rice (Oryra sativa) = assay: Test B flooded paddy test; settings: Flood, 250 g ai/ha; 0 to 100 scale where 0 is no effect and 100 is complete control; 13 to 15 d
Summary of the method: (§2)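 Response scored visually against untreated controls, 0 = no effect and 100 = complete control, 13–15 d after treatment in the greenhouse. Compounds added to paddy water held 3 cm above soil surface. Treatment given at 2-leaf stage.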

[16] = test system: ducksalad (Heteranthera limosa); assay: Test B flooded paddy test; settings: Flood, 250 g ai/ha; 0 to 100 scale where 0 is no effect and 100 is complete control; 13 to 15 d
Summary of the method: as §2

[17] = test system: sedge, umbrella (small-flower umbrella sedge, Cyperus difformis); assay: Test B flooded paddy test; settings: Flood, 250 g ai/ha; 0 to 100 scale where 0 is no effect and 100 is complete control; 13 to 15 d
Summary of the method: as §2

[18] = test system: barnyardgrass (Echinochloa crus-galli); assay: Test B flooded paddy test; settings: Flood, 250 g ai/ha; 0 to 100 scale where 0 is no effect and 100 is complete control; 13 to 15 d
Summary of the method: as §2

[19] = 125 g ai/ha, Preemergence, visual injury after approximately 10 d, 0 to 100 scale where 0 is no effect and 100 is complete control
[20] = 500 g ai/ha, preemergence, 0 to 100 scale, 0 = no effect, 100 = complete control
[21] = 125 g ai/ha, visual rating after approx. 10 d
[22] = 500 g ai/ha, visual injury, approx. 10 d

## CN1CC(c2cc(F)cc(F)c2)C(C(=O)Nc2cccc(F)c2F)C1=O (stereo not drawn) [Compound 644]
Kochia (Kochia scoparia) [1]; [19]
  Plant response rating, Kochia: 50
Kochia (Kochia scoparia) [1]; [20]
  Plant response rating, Kochia: 80
[2]; [19]
  Plant response rating, Ryegrass, Italian: 60
[2]; [20]
  Plant response rating, Ryegrass, Italian: 90
[3]; [19]
  Plant response rating, Pigweed: 60
[3]; [20]
  Plant response rating, Pigweed: 70
[4]; [19]
  Plant response rating, Foxtail, Giant: 90
[4]; [20]
  Plant response rating, Foxtail, Giant: 90
[5]; [19]
  Plant response rating, Ragweed: 50
[5]; [20]
  Plant response rating, Ragweed: 60
[6]; [19]
  Plant response rating, Barnyardgrass: 90
[6]; [20]
  Plant response rating, Barnyardgrass: 90
Kochia (Kochia scoparia) [7]; [21]
  Plant response rating, Kochia: 20
Kochia (Kochia scoparia) [7]; [22]
  Plant response rating, Kochia: 70
[8]; [21]
  Plant response rating, Ryegrass, Italian: 50
[8]; [22]
  Plant response rating, Ryegrass, Italian: 80
[9]; [21]
  Plant response rating, Pigweed: 20
[9]; [22]
  Plant response rating, Pigweed: 30
[10]; [21]
  Plant response rating, Foxtail, Giant: 90
[10]; [22]
  Plant response rating, Foxtail, Giant: 90
[11]; [21]
  Plant response rating, Blackgrass: 60
[11]; [22]
  Plant response rating, Blackgrass: 70
[12]; [21]
  Plant response rating, Ragweed: 0
[12]; [22]
  Plant response rating, Ragweed: 40
Corn (Zea mays); [21]
  Plant response rating, Corn: 70
Corn (Zea mays); [22]
  Plant response rating, Corn: 80
[13]; [21]
  Plant response rating, Barnyardgrass: 90
[13]; [22]
  Plant response rating, Barnyardgrass: 90
[14]; [21]
  Plant response rating, Galium: 50
[14]; [22]
  Plant response rating, Galium: 60
[15]; [21]
  Plant response rating, Wheat: 50
[15]; [22]
  Plant response rating, Wheat: 80
Rice (Oryra sativa)
  Plant response rating, Rice: 15
[16]
  Plant response rating, Ducksalad: 98
[17]
  Plant response rating, Sedge, Umbrella: 0
[18]
  Plant response rating, Barnyardgrass: 85
